Results: paper PMC6234764, “First Insights Into Within Host Translocation of the Bacillus cereus Toxin Cereulide Using a Porcine Model” (Frontiers in Microbiology, 2018)

Legend:
[1] = tested on: Peripheral blood mononuclear cells (PBMC); test: Flow cytometric analysis of PBMC populations; format: in vivo, pig
Experimental: Peripheral blood mononuclear cells (PBMC) were isolated from heparin-stabilized blood samples (5–8 mL) using Ficoll-Hypaque (PAA, Austria) density centrifugation as described elsewhere ([Saalmüller et al., 1987]). For flow cytometric (FCM) analysis PMBCs were labeled with monoclonal antibodies as indicated in Supplementary Table S1 and stained with the respective isotype-specific conjugates. For analysis of regulatory T cells, cells were fixed and permeabilized by using Foxp3 Staining Buffer Set (eBioscience) in accordance with the manufacturer‘s instructions or for B cells by a FormSap-F&P permeabilization and fixation protocol as described previously ([Gerner et al., 2008]; [Käser et al., 2008]). Samples were analyzed immediately after the final washing steps. Flow cytometric analyses were performed on a FACSCantoII (BD Bioscience). 50,000 events were collected for each sample. Data were analyzed using FACSDiva software 6.1.3 (BD Bioscience) and FlowJo software 7.6.
Neg a tiv e c ontr ol - - - - Isoty p co ntr ol Ig G2b 1 Anti-Ig G2b-Alexa488 2 - - Isoty pe cont rol Isoty p co ntr ol Ig G 1 Anti-Ig G1-RPE 3 […]
T he lp er ce lls Anti-CD4 (74-12-4; IgG2b) 4 Anti-Ig G2b-Alexa488 2 - - NK ce lls Anti-CD3 (PPT3; IgG1) 5 Anti-Ig G1-RPE 3 […]

[2] = tested on: Min6 cells and whole mouse pancreatic islets; details: ref Vangoitsenhoven et al., 2014; cited from earlier work
Experimental: Low concentrations of cereulide can cause dysfunction in beta-cell lines ([Vangoitsenhoven et al., 2014]) and have been reported to be detrimental toward isolated porcine pancreatic Langerhans islets ([Virtanen et al., 2008]). Using Min6 cells and whole mouse pancreatic islets as model, it could be shown that low concentrations of cereulide (0.25–0.5 ng/mL) are directly effecting the insulin secretory machinery ([Vangoitsenhoven et al., 2014]). Based on their in vitro findings the authors hypothesized that cereulide may contribute to the rise of prevalence of diabetes observed worldwide, as a ...

[3] = ref Andersson et al., 2007; cited from earlier work
Experimental: Due to the lipophilic character of cereulide (log Kow 5.96) ([Andersson et al., 2007]), it could be assumed that part of the ingested cereulide adheres to digested food and is rapidly excreted via feces. Indeed, as shown in our porcine model, within the first 48 h 10–15% of the cereulide toxin orally administered is shed with feces. Cereulide was already detected in feces a few hours after toxin administration, which allows an early, non-invasive identification of cereulide intoxications. Even in case of the low dose of cereulide used in the chronic trial (10 μg cereulide kg^-1) cereulide coul ...

[4] = ref Ehling-Schulz et al., 2004, Rajkovic et al., 2008, cited from earlier work
Description: The reported incidence of foodborne outbreaks caused by Bacillus toxins is steadily increasing worldwide throughout the last decade. For instance, in the European Union about 600–700 confirmed cases of foodborne outbreaks linked to B. cereus toxins are annually reported ([Messelhäußer and Ehling-Schulz, 2018]). Due to the rise of reports on severe intoxications, the Bacillus cereus toxin cereulide is of special concern. Cereulide is a small dodecadepsipeptide toxin that evokes emesis a short time after ingestion of contaminated food ([Agata et al., 1995]). Usally the disease is self limiting b ...

Structure (SMILES): CC(C)C[C@H]1OC(=O)[C@H](C(C)C)NC(=O)[C@H](C(C)C)OC(=O)[C@@H](C)NC(=O)[C@@H](CC(C)C)OC(=O)[C@H](C(C)C)NC(=O)[C@H](C(C)C)OC(=O)[C@@H](C)NC(=O)[C@@H](CC(C)C)OC(=O)[C@H](C(C)C)NC(=O)[C@H](C(C)C)OC(=O)[C@@H](C)NC1=O [cereulide]
- Cell composition of PBMCs in comparison to control pigs ([1]; after oral administration of cereulide): no significant changes
- Proportions of blood cell populations ([1]; daily oral dose 10 μg kg^-1 over 7 days): remained stable
- Low concentrations directly effecting the insulin secretory machinery [2]: 0.25 to 0.5 ng/mL
- log Kow [3]: 5.96
- Stability to enzymatic cleavage ([4]; gastro-intestinal passage): resistance to enzymatic cleavage
- Temperature and pH stability [4]: high temperature and pH stability
